Assay results taken from patent US8518956B2, “1-(1-(2-ethoxyethyl)-3-ethyl-7-(4-methylpyridin-2-ylamino)-1H-pyrazolo[4,3-d]pyrimidin-5-yl) piperidine-4-carboxylic acid and salts thereof” (priority 2005, dated 2013).

Molecular target: T1, PDE5 enzyme (Homo sapiens, UniProt O76074)
T1 construct: The PDE5 enzyme isolated from human platelets; from tissue; host or cells: human platelets
Experiment: Method 1: Human Platelet PDE5 Enzyme Inhibition Scintillation Proximity Assay
Type: biochemical
Settings: METHOD 1: PDE5 IC50, Table B, WO2004096810 examples
Description: Method 1: Human Platelet PDE5 Enzyme Inhibition Scintillation Proximity Assay
An in vitro assay can be used to evaluate the inhibition of PDE5 enzyme activity by a test compound.
The PDE5 enzyme for use in the assay can be obtained from human platelets by appropriate modification of the method of Thompson, W J et al.; Biochemistry 18(23), 5228-5237, 1979, as described by Ballard S A et al.; J. Urology 159(6), 2164-2171, 1998. The PDE5 enzyme isolated from human platelets can be used to catalyze the hydrolysis of [^3H]cGMP (Amersham Biosciences) to 5′ nucleotide [^3H]GMP. The [^3H]GMP binds to yttrium silicate SPA beads (Amersham Biosciences) and is detected by scintillation counting. More specifically, the effect of the test compound at different concentrations can be evaluated in the assay by contacting the compound with a fixed amount of PDE5 enzyme in the presence of substrate (cGMP or cAMP in a 3:1 ratio unlabelled to [^3H]-labeled). Scintillation counting can be used as described above to determine relative PDE5 enzyme activity. The inhibition of PDE5 enzyme activity is then calculated relative to total PDE5 enzyme activity of uninhibited controls.
PDE5 IC50 Assay: 96-well microtiter plate format
• Buffer A: 20 mM Tris-HCl, 5 mM MgCl2, pH 7.4 • Buffer B: 2 mg/ml BSA in Buffer A (enzyme buffer) • cGMP substrate: Final concentration of 500 nM in assay The amount of ^3H-labeled substrate added depends upon the specific activity of [^3H]cGMP, and the cGMP substrate is diluted with a 10 mM stock of cold cGMP in Buffer A for a final substrate concentration of 500 nM in the assay. • PDE enzyme: Prepared in Buffer B. The dilution factor is determined by enzyme activity. • SPA beads: 20 mg/ml suspension prepared in dH2O.
Stocks of standard and test compounds are prepared at 5 mM in 100% DMSO. The compound is serially diluted in a dilution plate using a 10-point ½ log dilution format. 2 μl of the compound dilution is added in duplicate to the wells of the assay plate. 2 μl of 100% DMSO are added to designated control wells. 25 μl of Buffer A are added to all wells. 25 μl of Buffer B are added to the negative control wells. 25 μl of enzyme are added to the remaining wells. 50 μl of substrate are added to each well. Plates are sealed and incubated for 60 minutes on a plate shaker at 30 C. 50 plof SPA beads are added to stop the reaction. The plates are again sealed and shaken for 15 minutes to allow the beads to bind the GMP product. The beads are allowed to settle for 30 minutes and then read on a NXT TopCount scintillation counter. Data are analyzed with a curve fitting application for plate-based screening. Percent inhibition in this assay is calculated as follows: Inhibition (%)=[(mean maximum−compound value/(mean maximum−mean minimum)]×100.
The IC50 value is determined from sigmoid dose-response curves of enzyme activity versus compound concentration.

SMILES: CCOCCn1nc(CO)c2nc(N(C)CC)nc(Nc3ccncn3)c21 [WO2004096810 Example 228]
- IC50: 3.09 nM

SMILES: CCOCCn1nc(C)c2nc(N(C)CC)nc(Nc3ccncn3)c21 [WO2004096810 Example 217]
- IC50: 2.55 nM

SMILES: CCc1nn(CCOC)c2c(Nc3ccc(C)cn3)nc(N3CCNCC3)nc12 [WO2004096810 Example 151]
- IC50: 22 nM

SMILES: CCCc1nn(C)c2c(Nc3ccc(C)cn3)nc(N3CCNCC3)nc12 [WO2004096810 Example 34]
- IC50: 50.2 nM

SMILES: CCOCCn1nc(CC)c2nc(N(C)[C@H]3CCN(C)C3)nc(Nc3ccc(C)cn3)c21 [WO2004096810 Example 192]
- IC50: 3.06 nM

SMILES: CCOCCn1nc(C)c2nc(N3CCN[C@H](C(C)C)C3)nc(Nc3ccncn3)c21 [WO2004096810 Example 13]
- IC50: 19.1 nM

SMILES: CCCc1nn(C)c2c(Nc3ccc(C)cn3)nc(N3CCCCC3)nc12 [WO2004096810 Example 36]
- IC50: 1450 nM

SMILES: Cc1ccnc(Nc2nc(N3CCNCC3)nc3c(C)n(CC4CC4)nc23)c1 [WO2004096810 Example 173]
- IC50: 396 nM

SMILES: CCCc1nn(C)c2c(Nc3ncc[nH]3)nc(NC)nc12 [WO2004096810 Example 90]
- IC50: 1550 nM

SMILES: COCCn1nc(C)c2nc(N3CCNCC3)nc(Nc3cc(C)ccn3)c21 [WO2004096810 Example 165]
- IC50: 10.5 nM

SMILES: CCOCCn1nc(CC)c2nc(N3C[C@H](C)NC[C@H]3C)nc(Nc3ccc(C)cn3)c21 [WO2004096810 Example 140]
- IC50: 1.95 nM

SMILES: CCc1nn(CCOC)c2c(Nc3cc(C)ccn3)nc(NC)nc12 [compound 1]
- IC50: 16.2 nM

SMILES: Cc1ccnc(Nc2nc(N3CCNCC3)nc3c(C)n(CC4CCC4)nc23)c1 [WO2004096810 Example 177]
- IC50: 535 nM

SMILES: Cc1ccc(Nc2nc(N3CCN[C@H](C)C3)nc3c(C)nn(C(C)C)c23)nc1 [WO2004096810 Example 9]
- IC50: 508 nM

SMILES: CCOCCn1nc(C)c2nc(N3C[C@@H]4C[C@H]3CN4)nc(Nc3cc(C)ccn3)c21 [WO2004096810 Example 236]
- IC50: 2.51 nM

SMILES: CCOCCn1nc(CC)c2nc(N(C)[C@H]3CCN(C)C3)nc(Nc3cc(C)ccn3)c21 [WO2004096810 Example 162]
- IC50: 0.24 nM

SMILES: CCOCCn1nc(C)c2nc(N3C[C@H](C)NC[C@H]3C)nc(Nc3ccncn3)c21 [WO2004096810 Example 138]
- IC50: 0.33 nM

SMILES: Cc1ccnc(Nc2nc(N3C[C@@H]4C[C@H]3CN4)nc3c(C)nn(CCOCC(F)(F)F)c23)c1 [WO2004096810 Example 231]
- IC50: 10.3 nM

SMILES: CCc1nn(CCOC)c2c(Nc3cc(C)ccn3)nc(N3CCC(O)CC3)nc12 [WO2004096810 Example 94]
- IC50: 43.2 nM

SMILES: COCCn1nc(C)c2nc(N3C[C@@H](C)NC[C@@H]3C)nc(Nc3ccncn3)c21 [WO2004096810 Example 144]
- IC50: 5.34 nM

SMILES: CCOCCn1nc(C)c2nc(N3C[C@@H]4C[C@H]3CN4)nc(Nc3cccc(C)n3)c21 [WO2004096810 Example 235]
- IC50: > 100 nM

SMILES: CCc1nn(CCOC)c2c(Nc3cc(C)ccn3)nc(N[C@H](C)CO)nc12 [WO2004096810 Example 154]
- IC50: 12.6 nM

SMILES: CCOCCn1nc(CC)c2nc(N3C[C@@H](C)NC[C@@H]3C)nc(Nc3cc(C)ccn3)c21 [WO2004096810 Example 148]
- IC50: 4.39 nM

SMILES: COCCn1nc(C)c2nc(N3C[C@H](C)NC[C@H]3C)nc(Nc3ccc(C)cn3)c21 [WO2004096810 Example 134]
- IC50: 6.57 nM

SMILES: CCCc1nn(C)c2c(Nc3cccnn3)nc(N3CCNCC3)nc12 [WO2004096810 Example 88]
- IC50: > 100 nM

SMILES: CCCc1nn(C)c2c(Nc3ccncn3)nc(N3CCN(C)CC3)nc12 [WO2004096810 Example 80]
- IC50: 1940 nM

SMILES: CCCc1nn(C)c2c(Nc3ccncn3)nc(N3CCN[C@H](C)C3)nc12 [WO2004096810 Example 91]
- IC50: 22.6 nM

SMILES: CCOCCn1nc(COC)c2nc(N(C)CC)nc(Nc3ccncn3)c21 [WO2004096810 Example 225]
- IC50: 1.33 nM

SMILES: CCOCCn1nc(CC)c2nc(N3CCN[C@H](C(C)C)C3)nc(Nc3ccncn3)c21 [WO2004096810 Example 17]
- IC50: 22.4 nM

SMILES: COCCn1nc(C)c2nc(N3C[C@H](C)NC[C@H]3C)nc(Nc3cc(C)ccn3)c21 [WO2004096810 Example 133]
- IC50: 4.45 nM

SMILES: CCOCCn1nc(C)c2nc(N3C[C@@H]4C[C@H]3CN4)nc(Nc3ccncn3)c21 [WO2004096810 Example 241]
- IC50: 48.7 nM

SMILES: COCCn1nc(C)c2nc(N3C[C@H](C)NC[C@H]3C)nc(Nc3ccncn3)c21 [WO2004096810 Example 135]
- IC50: 0.92 nM

SMILES: CCOCCn1nc(C)c2nc(N3C[C@@H](C)NC[C@@H]3C)nc(Nc3ccc(C)cn3)c21 [WO2004096810 Example 146]
- IC50: 32.1 nM

SMILES: CCOCCn1nc(COC)c2nc(N(C)C3CCN(C)CC3)nc(Nc3cc(C)ccn3)c21 [WO2004096810 Example 214]
- IC50: 0.37 nM

SMILES: CCCc1nn(C)c2c(Nc3cc(OC)ncn3)nc(N3CCNCC3)nc12 [WO2004096810 Example 83]
- IC50: 134 nM

SMILES: CCOCCn1nc(COCC)c2nc(N(C)C)nc(Nc3cc(C)ccn3)c21 [WO2004096810 Example 188]
- IC50: 0.47 nM

SMILES: CCCc1nn(C)c2c(Nc3cc(C)ccn3)nc(NCc3ccc(OC)cc3)nc12 [WO2004096810 Example 71]
- IC50: 152 nM

SMILES: CCCc1nn(C)c2c(NC3CCCC3)nc(N3CCNCC3)nc12 [WO2004096810 Example 129]
- IC50: 139 nM

SMILES: CCOCCn1nc(COC)c2nc(N(C)CC)nc(Nc3cc(C)ccn3)c21 [WO2004096810 Example 212]
- IC50: 0.13 nM

SMILES: CCOCCn1nc(C)c2nc(N(C)[C@H]3CCN(C)C3)nc(Nc3ccncn3)c21 [WO2004096810 Example 191]
- IC50: 0.24 nM

SMILES: CCOCCn1nc(C)c2nc(N(C)CCO)nc(Nc3cc(C)ccn3)c21 [WO2004096810 Example 208]
- IC50: 0.71 nM

SMILES: CCOCCn1nc(C)c2nc(N(C)[C@H]3CCN(C)C3)nc(Nc3cc(C)ccn3)c21 [WO2004096810 Example 161]
- IC50: 0.5 nM

SMILES: COCCn1nc(C)c2nc(N3C[C@@H](C)NC[C@@H]3C)nc(Nc3cc(C)ccn3)c21 [WO2004096810 Example 142]
- IC50: 22.7 nM

SMILES: CCCc1nn(C)c2c(Nc3cc(C)ccn3)nc(N3CCN[C@@H](C)C3)nc12 [WO2004096810 Example 39]
- IC50: 456 nM

SMILES: CCCOCCn1nc(C)c2nc(N3CCN[C@H](C)C3)nc(Nc3ccc(C)cn3)c21 [WO2004096810 Example 7]
- IC50: 6.03 nM

SMILES: CCOCCn1nc(COC)c2nc(N3CC(N(C)C)C3)nc(Nc3cc(C)ccn3)c21 [WO2004096810 Example 215]
- IC50: 5.3 nM

SMILES: CCOCCn1nc(C)c2nc(N3CC(NC)C3)nc(Nc3cc(C)ccn3)c21 [WO2004096810 Example 204]
- IC50: 24.1 nM

SMILES: CCCc1nn(C)c2c(Nc3ccc(C)cn3)nc(N3CCC(O)CC3)nc12 [WO2004096810 Example 35]
- IC50: 737 nM

SMILES: CCOCCn1ncc2nc(N3CCN[C@H](C)C3)nc(Nc3ccncn3)c21 [WO2004096810 Example 21]
- IC50: 2.04 nM

SMILES: Cc1ccnc(Nc2nc(N3CCNCC3)nc3c(C)n(CCC(C)C)nc23)c1 [WO2004096810 Example 174]
- IC50: 432 nM

SMILES: CCCOCCn1nc(C)c2nc(N3CCN[C@H](C)C3)nc(Nc3cc(C)ccn3)c21 [WO2004096810 Example 4]
- IC50: 8.84 nM

SMILES: CCOCCn1nc(COC)c2nc(N3CCC[C@H]3CO)nc(Nc3cc(C)ccn3)c21 [WO2004096810 Example 213]
- IC50: 0.42 nM

SMILES: CCOCCn1nc(C)c2nc(N3CCN[C@H](C)C3)nc(Nc3cc(C)ncn3)c21 [WO2004096810 Example 200]
- IC50: 4.7 nM

SMILES: CCOCCn1nc(C)c2nc(N3CC(N(C)C)C3)nc(Nc3cc(C)ccn3)c21 [WO2004096810 Example 205]
- IC50: 6.24 nM

SMILES: CCOCCn1nc(C)c2nc(N3C[C@@H](C)NC[C@@H]3C)nc(Nc3ccncn3)c21 [WO2004096810 Example 147]
- IC50: 2.46 nM

SMILES: CCc1nn(CCOC)c2c(Nc3ccc(C)cn3)nc(N3CCOCC3)nc12 [WO2004096810 Example 108]
- IC50: 778 nM

SMILES: CCOCCn1nc(C)c2nc(N3CCN[C@H](C)C3)nc(Nc3nccc(C)n3)c21 [WO2004096810 Example 221]
- IC50: 35.4 nM

SMILES: COCCCn1nc(C)c2nc(N3CCNCC3)nc(Nc3cc(C)n[nH]3)c21 [WO2004096810 Example 116]
- IC50: 1760 nM

SMILES: CCCc1nn(C)c2c(Nc3cc(C)ccn3)nc(N)nc12 [WO2004096810 Example 77]
- IC50: > 10000 nM
